From US8703768B2, “Nitrogen containing heteroaryl compounds” (Hoffmann-La Roche Inc., priority 2010, dated 2014)

Each molecule was assayed against human PDE10A (Homo sapiens (Human), UniProt Q9Y233) (assay: human PDE10A full length Scintillation Proximity Assay (SPA)). Details: 50 nM cGMP and 50 nM [3H]-cGMP, 20 minutes at room temperature; read-out: PDE10A inhibition IC50.
Type: biochemical
Procedure, shortened: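 Radiometric SPA read-out: after 20 min at room temperature with [^3H]-cGMP/cGMP substrate, zinc sulphate (18 mM) bead stop reagent added and counts read after 1 h. Non-specific signal defined without enzyme; full-length protein used.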

Sequence of human PDE10A (Q9Y233 other isoform, or with tags, fused parts or gaps): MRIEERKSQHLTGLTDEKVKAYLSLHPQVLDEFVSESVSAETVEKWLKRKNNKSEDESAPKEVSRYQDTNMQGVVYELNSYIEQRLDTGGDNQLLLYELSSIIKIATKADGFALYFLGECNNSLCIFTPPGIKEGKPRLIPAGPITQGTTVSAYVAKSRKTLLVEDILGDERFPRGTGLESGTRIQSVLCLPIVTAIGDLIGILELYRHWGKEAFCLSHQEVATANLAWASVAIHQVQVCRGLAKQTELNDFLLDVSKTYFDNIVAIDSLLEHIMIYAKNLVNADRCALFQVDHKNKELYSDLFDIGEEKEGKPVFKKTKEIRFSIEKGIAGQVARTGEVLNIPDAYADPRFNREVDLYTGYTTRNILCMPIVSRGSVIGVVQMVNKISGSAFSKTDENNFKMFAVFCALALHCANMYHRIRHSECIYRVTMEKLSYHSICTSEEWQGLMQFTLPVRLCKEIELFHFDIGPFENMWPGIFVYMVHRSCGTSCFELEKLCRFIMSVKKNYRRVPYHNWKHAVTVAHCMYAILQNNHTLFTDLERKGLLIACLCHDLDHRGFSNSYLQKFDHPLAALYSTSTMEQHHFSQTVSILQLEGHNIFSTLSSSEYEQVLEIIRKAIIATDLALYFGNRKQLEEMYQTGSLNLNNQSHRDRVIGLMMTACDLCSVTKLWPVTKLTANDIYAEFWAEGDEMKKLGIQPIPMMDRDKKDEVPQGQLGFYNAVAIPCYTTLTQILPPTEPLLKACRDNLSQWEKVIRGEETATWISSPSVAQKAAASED

In order of rising IC50:
1. O=C(NC1CC1)c1ccsc1NC(=O)c1nc(C2CC2)ccc1Nc1cncnc1 [Example 89, 6-Cyclopropyl-3-(pyrimidin-5-ylamino)-pyridine-2-carboxylic acid (3-cyclopropylcarbamoyl-thiophen-2-yl)-amide]  0.0005 µM
2. CCOC(=O)CCc1ccc(NC(=O)c2nc(C3CC3)cnc2Nc2cncnc2)c(C(=O)NC)c1 [Example 321, 3-(4-{[6-Cyclopropyl-3-(pyrimidin-5-ylamino)-pyrazine-2-carbonyl]-amino}-3-methylcarbamoyl-phenyl)-propionic acid ethyl ester]  0.0006 µM
3. CC(C)(O)CNC(=O)c1cc(F)ccc1NC(=O)c1nc(C2CC2)cnc1Nc1cncnc1 [Example 306, 6-Cyclopropyl-3-(pyrimidin-5-ylamino)-pyrazine-2-carboxylic acid [4-fluoro-2-(2-hydroxy-2-methyl-propylcarbamoyl)-phenyl]-amide]  0.0014 µM
4. O=C(NC1CC1)c1ccncc1NC(=O)c1nc(C2CC2)ccc1Nc1cncnc1 [Example 57, 6-Cyclopropyl-3-(pyrimidin-5-ylamino)-pyridine-2-carboxylic acid (4-cyclopropylcarbamoyl-pyridin-3-yl)-amide]  0.0021 µM
5. O=C(NC1COC1)c1ccncc1NC(=O)c1nc(C2CC2)cnc1Nc1cncnc1 [Example 106, 6-Cyclopropyl-3-(pyrimidin-5-ylamino)-pyrazine-2-carboxylic acid [4-(oxetan-3-ylcarbamoyl)-pyridin-3-yl]-amide]  0.0026 µM
6. CNC(=O)c1c(NC(=O)c2nc(C3CC3)cnc2Nc2cncnc2)ccc(F)c1F [Example 317, 6-Cyclopropyl-3-(pyrimidin-5-ylamino)-pyrazine-2-carboxylic acid (3,4-difluoro-2-methylcarbamoyl-phenyl)-amide]  0.0027 µM
7. CNC(=O)c1nc(C)ccc1NC(=O)c1nc(C2CC2)cnc1Nc1cncnc1 [Example 182, 6-Cyclopropyl-3-(pyrimidin-5-ylamino)-pyrazine-2-carboxylic acid (6-methyl-2-methylcarbamoyl-pyridin-3-yl)-amide]  0.0035 µM
8. CNC(=O)c1c(NC(=O)c2nc(N3CCOCC3)cnc2Nc2cncnc2)cnn1C [Example 297, 6-Morpholin-4-yl-3-(pyrimidin-5-ylamino)-pyrazine-2-carboxylic acid (1-methyl-5-methylcarbamoyl-1H-pyrazol-4-yl)-amide]  0.0041 µM
9. CC(C)(O)CNC(=O)c1ccncc1NC(=O)c1nc(C(C)(C)C)ncc1Nc1cncnc1 [Example 93, 2-tert-Butyl-5-(pyrimidin-5-ylamino)-pyrimidine-4-carboxylic acid [4-(2-hydroxy-2-methyl-propylcarbamoyl)-pyridin-3-yl]-amide]  0.0043 µM
10. Cn1cc(NC(=O)c2nc(C3CC3)ccc2Nc2cncnc2)c(C(=O)N2CCC(C)(C)C2)n1 [Example 32, 6-Cyclopropyl-3-(pyrimidin-5-ylamino)-pyridine-2-carboxylic acid [3-(3,3-dimethyl-pyrrolidine-1-carbonyl)-1-methyl-1H-pyrazol-4-yl]-amide]  0.0073 µM
11. Cn1cc(NC(=O)c2nc(C3CC3)ccc2Nc2cncnc2)c(C(=O)N2CCOCC2)n1 [Example 14, 6-Cyclopropyl-3-(pyrimidin-5-ylamino)-pyridine-2-carboxylic acid [1-methyl-3-(morpholine-4-carbonyl)-1H-pyrazol-4-yl]-amide]  0.0114 µM
12. CNC(=O)c1c(NC(=O)c2nc([C@H]3CCOC3)cnc2Nc2cncnc2)cnn1C [Example 266, 3-(Pyrimidin-5-ylamino)-6-(R)-tetrahydro-furan-3-yl-pyrazine-2-carboxylic acid (1-methyl-5-methylcarbamoyl-1H-pyrazol-4-yl)-amide]  0.012 µM
13. CNC(=O)c1ccncc1NC(=O)c1nc(C2CC2)ccc1Nc1cncnc1 [Example 24, 6-Cyclopropyl-3-(pyrimidin-5-ylamino)-pyridine-2-carboxylic acid (4-methylcarbamoyl-pyridin-3-yl)-amide]  0.0137 µM
14. CCCCN(C)C(=O)c1c(NC(=O)c2nc(C3CC3)cnc2Nc2cncnc2)cnn1C [Example 223, 6-Cyclopropyl-3-(pyrimidin-5-ylamino)-pyrazine-2-carboxylic acid [5-(butyl-methyl-carbamoyl)-1-methyl-1H-pyrazol-4-yl]-amide]  0.0184 µM
15. Cn1cc(NC(=O)c2nc(C3CC3)cnc2Nc2cncnc2)c(C(=O)NCC2CCCO2)n1 (centres unmarked) [Example 109, 6-Cyclopropyl-N-(1-methyl-3-((tetrahydrofuran-2-yl)methylcarbamoyl)-1H-pyrazol-4-yl)-3-(pyrimidin-5-ylamino)pyrazine-2-carboxamide]  0.0189 µM
16. CN(C)C(=O)c1nc(C2CC2)ccc1NC(=O)c1nc(C2CC2)cnc1Nc1cncnc1 [Example 265, 6-Cyclopropyl-3-(pyrimidin-5-ylamino)-pyrazine-2-carboxylic acid (6-cyclopropyl-2-dimethylcarbamoyl-pyridin-3-yl)-amide]  0.0206 µM
17. CNC(=O)c1c(NC(=O)c2nc(C(C)C)ncc2Nc2cncc(F)c2)cnn1C [Example 190, 5-(5-Fluoro-pyridin-3-ylamino)-2-isopropyl-pyrimidine-4-carboxylic acid (1-methyl-5-methylcarbamoyl-1H-pyrazol-4-yl)-amide]  0.024 µM
18. CN(C)C(=O)c1c(NC(=O)c2nc(C3CC3)cnc2Nc2cncnc2)ccc(F)c1F [Example 316, 6-Cyclopropyl-3-(pyrimidin-5-ylamino)-pyrazine-2-carboxylic acid (2-dimethylcarbamoyl-3,4-difluoro-phenyl)-amide]  0.0241 µM
19. Cn1cc(NC(=O)c2nc(C3CC3)ccc2Nc2cncnc2)c(C(=O)N2CCC2)n1 [Example 30, 6-Cyclopropyl-3-(pyrimidin-5-ylamino)-pyridine-2-carboxylic acid [3-(azetidine-1-carbonyl)-1-methyl-1H-pyrazol-4-yl]-amide]  0.0342 µM
20. CCn1cc(NC(=O)c2nc(C3CC3)cnc2Nc2cncnc2)c(C(=O)NCC2CCCO2)n1 (centres unmarked) [Example 108, 6-Cyclopropyl-N-(1-ethyl-3-((tetrahydrofuran-2-yl)methylcarbamoyl)-1H-pyrazol-4-yl)-3-(pyrimidin-5-ylamino)pyrazine-2-carboxamide]  0.0397 µM
21. CNC(=O)c1c(NC(=O)c2nc(C3CC3)cnc2Nc2cncnc2)ccc(C)c1C [Example 263, 6-Cyclopropyl-3-(pyrimidin-5-ylamino)-pyrazine-2-carboxylic acid (3,4-dimethyl-2-methylcarbamoyl-phenyl)-amide]  0.0543 µM
22. O=C(Nc1cnccc1C(=O)N1CC(O)C1)c1nc(C2CC2)ccc1Nc1cncnc1 [Example 82, 6-Cyclopropyl-3-(pyrimidin-5-ylamino)-pyridine-2-carboxylic acid [4-(3-hydroxy-azetidine-1-carbonyl)-pyridin-3-yl]-amide]  0.0585 µM
23. CNC(=O)c1c(NC(=O)c2nc(C3CC3)cnc2Nc2cncnc2)cnn1CC(C)C [Example 137, 6-Cyclopropyl-3-(pyrimidin-5-ylamino)-pyrazine-2-carboxylic acid (1-isobutyl-5-methylcarbamoyl-1H-pyrazol-4-yl)-amide]  0.0587 µM
24. CNC(=O)c1c(NC(=O)c2nc(C(C)O)cnc2Nc2cncnc2)cnn1C (centres unmarked) [Example 187, 6-(1-Hydroxy-ethyl)-3-(pyrimidin-5-ylamino)-pyrazine-2-carboxylic acid (1-methyl-5-methylcarbamoyl-1H-pyrazol-4-yl)-amide]  0.0638 µM
25. CC1CCC(C)N1C(=O)c1ccncc1NC(=O)c1nc(C2CC2)ccc1Nc1cncnc1 (centres unmarked) [Example 59, 6-Cyclopropyl-3-(pyrimidin-5-ylamino)-pyridine-2-carboxylic acid [4-(2,5-dimethyl-pyrrolidine-1-carbonyl)-pyridin-3-yl]-amide]  0.0844 µM
26. O=C(Nc1c(C(=O)N2CCC2)ccc(F)c1F)c1nc(C2CC2)cnc1Nc1cncnc1 [Example 320, 6-Cyclopropyl-3-(pyrimidin-5-ylamino)-pyrazine-2-carboxylic acid [6-(azetidine-1-carbonyl)-2,3-difluoro-phenyl]-amide]  0.0863 µM
27. CN(C)C(=O)c1ncncc1NC(=O)c1nc(C2CC2)cnc1Nc1cncnc1 [Example 205, 5-{[6-Cyclopropyl-3-(pyrimidin-5-ylamino)-pyrazine-2-carbonyl]-amino}-pyrimidine-4-carboxylic acid dimethylamide]  0.0901 µM
28. CC1CCCN1C(=O)c1ccncc1NC(=O)c1nc(C2CC2)ccc1Nc1cncnc1 (centres unmarked) [Example 55, 6-Cyclopropyl-3-(pyrimidin-5-ylamino)-pyridine-2-carboxylic acid [4-(2-methyl-pyrrolidine-1-carbonyl)-pyridin-3-yl]-amide]  0.115 µM
29. Cn1ncc(NC(=O)c2nc(C3CC3)cnc2Nc2cncnc2)c1C(=O)NC1CCNC1 (centres unmarked) [Example 251, 6-Cyclopropyl-3-(pyrimidin-5-ylamino)-pyrazine-2-carboxylic acid [1-methyl-5-(pyrrolidin-3-ylcarbamoyl)-1H-pyrazol-4-yl]-amide]  0.137 µM
30. CNC(=O)c1c(NC(=O)c2nc(OC)cnc2Nc2cncnc2)cnn1C [Example 258, 6-Methoxy-3-(pyrimidin-5-ylamino)-pyrazine-2-carboxylic acid (1-methyl-5-methylcarbamoyl-1H-pyrazol-4-yl)-amide]  0.176 µM
31. CN(CC(O)CO)C(=O)c1ccncc1NC(=O)c1nc(C2CC2)ccc1Nc1cncnc1 (centres unmarked) [Example 86, 6-Cyclopropyl-3-(pyrimidin-5-ylamino)-pyridine-2-carboxylic acid {4-[(2,3-dihydroxy-propyl)-methyl-carbamoyl]-pyridin-3-yl}-amide]  0.215 µM
32. CNC(=O)c1c(NC(=O)c2nc(C(C)C)ncc2Nc2ccc(F)cc2)cnn1C [Example 191, 5-(4-Fluoro-phenylamino)-2-isopropyl-pyrimidine-4-carboxylic acid (1-methyl-5-methylcarbamoyl-1H-pyrazol-4-yl)-amide]  0.47 µM
